From patent US9924717B2, “Molecules having pesticidal utility, and intermediates, compositions, and processes, related thereto” (Dow AgroSciences LLC, priority 2016, dated 2018) come the findings set out here.

As a reminder, the pest or weed control is the degree to which the test organism was suppressed or injured, in per cent. Read a low pest or weed control as a weak effect.

What all share (assay type): in vivo
Assay [1] concerns Beet Armyworm (Spodoptera exigua, LAPHEG) (BAW). Put plainly: Bioassays on Beet Armyworm (BAW), 128-well diet tray assay. The following applies: Table ABC rating, Beet Armyworm. A digest of the protocol:
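Beet armyworm (Spodoptera exigua) was tested with a 128-well diet tray format. Each 3 mL well held 1 mL of artificial diet treated with the test molecule in 50 μL of 90:10 acetone-water and allowed to dry, across eight wells. One to five second instar larvae were added per well. Trays were sealed with clear self-adhesive covers and kept at 25° C. under 14:10 light-dark for five to seven days. Percent mortality was scored per well and averaged across the eight wells.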

Assay [2] deals with Cabbage Looper (Trichoplusia ni, TRIPNI) (CL). Put plainly: Bioassays on Cabbage Looper (CL), 128-well diet tray assay. The following applies: Table ABC rating, Cabbage Looper. A digest of the protocol:
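Cabbage looper (Trichoplusia ni) larvae at the second instar stage were tested in a 128-well diet tray. Each 3 mL well held 1 mL of artificial diet treated with test molecule dissolved in 50 μL of 90:10 acetone-water and allowed to dry, eight wells per treatment. One to five larvae were added per well. Trays were sealed with clear self-adhesive covers and kept at 25° C., 14:10 light-dark for five to seven days. Percent mortality per well was averaged across the eight wells.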

Assay [3] relates to Green Peach Aphid (Myzus persicae, MYZUPE) (GPA). Put plainly: Bioassays on Green Peach Aphid (GPA), cabbage seedling foliar spray. The following applies: Table ABC rating. Here is the method:
Example B: Bioassays on Green Peach Aphid (Myzus persicae, MYZUPE) (“GPA”) Certain molecules disclosed in this document were tested against GPA using procedures described in the following example. In the reporting of the results, the “GPA & YFM Rating Table” was used (See Table Section). Cabbage seedlings grown in 3-inch pots, with 2-3 small (3-5 cm) true leaves, were used as test substrate. The seedlings were infested with 20-50 GPA (wingless adult and nymph stages) one day prior to chemical application. Four pots with individual seedlings were used for each treatment. Test molecules (2 mg) were dissolved in 2 mL of acetone/methanol (1:1) solvent, forming stock solutions of 1000 ppm test molecule. The stock solutions were diluted 5× with 0.025% Tween 20 in water to obtain the solution at 200 ppm test molecule. A hand-held aspirator-type sprayer was used for spraying a solution to both sides of […] leaves until runoff. Reference plants (solvent check) were sprayed with the diluent only containing 20% by volume of acetone/methanol (1:1) solvent. Treated plants were held in a holding room for three days at approximately 25° C. and ambient relative humidity (RH) prior to grading. Evaluation was conducted by counting the number of live aphids per plant under a microscope. Percent Control was measured by using Abbott's correction formula (W. S. Abbott, “A Method of Computing the Effectiveness of an Insecticide” J. Econ. Entomol. 18 (1925), pp. 265-267) as follows. Corrected % Control=100*(X−Y)/X • where • X=No. of live aphids on solvent check plants and • Y=No. of live aphids on treated plants The results are indicated in the table entitled “Table ABC: Biological Results” (See Table Section).

Assay [4] relates to Yellow Fever Mosquito (Aedes aegypti, AEDSAE) (YFM). Put plainly: Bioassays on Yellow Fever Mosquito (YFM), 96-well plate larval assay. The note with it: Table ABC rating. Here is the method: Example C: Bioassays on Yellow Fever Mosquito (Aedes aegypti, AEDSAE) (“YFM”)
Certain molecules disclosed in this document were tested against YFM using procedures described in the following paragraph. In the reporting of the results, the “GPA & YFM Rating Table” was used (See Table Section).
Master plates containing 400 μg of a molecule dissolved in 100 μL of dimethyl sulfoxide (DMSO) (equivalent to a 4000 ppm solution) are used. A master plate of assembled molecules contains 15 μL per well. To this plate, 135 μL of a 90:10 water:acetone mixture is added to each well. A robot (Biomek® NXP Laboratory Automation Workstation) is programmed to dispense 15 μL aspirations from the master plate into an empty 96-well shallow plate (“daughter” plate). There are 6 reps (“daughter” plates) created per master. The created daughter plates are then immediately infested with YFM larvae.
The day before plates are to be treated, mosquito eggs are placed in Millipore water containing liver powder to begin hatching (4 g. into 400 mL). After the daughter plates are created using the robot, they are infested with 220 μL of the liver powder/larval mosquito mixture (about 1 day-old larvae). After plates are infested with mosquito larvae, a non-evaporative lid is used to cover the plate to reduce drying. Plates are held at room temperature for 3 days prior to grading. After 3 days, each well is observed and scored based on mortality. The results are indicated in the table entitled “Table ABC: Biological Results” (See Table Section).

For `O=C(NC1CC(F)(F)C1)c1ccc(/C(F)=C/C(c2cc(Cl)c(Cl)c(Cl)c2)C(F)(F)F)cc1C(F)(F)F` (stereo not drawn) [F7, (Z)—N-(3,3-difluorocyclobutyl)-4-(1,4,4,4-tetrafluoro-3-(3,4,5-trichlorophenyl)but-1-en-1-yl)-2-(trifluoromethyl)benzamide], the pest or weed control at 50 µg/cm2 in assay [1] and in assay [2] was 50 to 100% throughout. Moreover, in assay [3], the GPA result is “A (80-100)”.
In the case of `O=C(NC1CC1)c1ccc(/C(F)=C/C(c2cc(Cl)c(F)c(Cl)c2)C(F)(F)F)cc1C(F)(F)F` (stereo not drawn) [F43, (Z)—N-Cyclopropyl-4-(3-(3,5-dichloro-4-fluorophenyl)-1,4,4,4-tetrafluorobut-1-en-1-yl)-2-(trifluoromethyl)benzamide], the pest or weed control at 50 µg/cm2 in assay [1] and in assay [2] was 50 to 100% in each case. Further, the YFM result in assay [4] is listed as “A (80-100)”.
In the case of `O=C(NC1CC1)c1ccc(/C(F)=C/C(c2cc(Cl)c(Cl)c(Cl)c2)C(F)(F)F)cc1C(F)(F)F` (stereo not drawn) [F3, (Z)—N-Cyclopropyl-4-(1,4,4,4-tetrafluoro-3-(3,4,5-trichlorophenyl)but-1-en-1-yl)-2-(trifluoromethyl)benzamide], the pest or weed control at 50 µg/cm2 in assay [1] and in assay [2] was 50 to 100% throughout. Further, in assay [3], the GPA entry was “B (More than 0-Less than 80)”.
Take `C[C@@H](NC(=O)c1ccc(/C(F)=C/C(c2ccc(Cl)c(Cl)c2)C(F)(F)F)cc1C(F)(F)F)C(F)(F)F` (stereo partly drawn) [F16, 4-((Z)-3-(3,4-Dichlorophenyl)-1,4,4,4-tetrafluorobut-1-en-1-yl)-2-(trifluoromethyl)-N—((R)-1,1,1-trifluoropropan-2-yl)benzamide]: the pest or weed control at 50 µg/cm2 in assay [1] and in assay [2] was 50 to 100% throughout. Further, in assay [4], the YFM entry is given as “A (80-100)”.
On to `CO/N=C\NC(=O)c1ccc(/C(F)=C/C(c2cc(Cl)c(Cl)c(Cl)c2)C(F)(F)F)cc1C(F)(F)F` (mixture of isomers) [F19, N-((E/Z)-(methoxyimino)methyl)-4-((Z)-1,4,4,4-tetrafluoro-3-(3,4,5-trichlorophenyl)but-1-en-1-yl)-2-(trifluoromethyl)benzamide], for which the pest or weed control at 50 µg/cm2 in assay [1] and in assay [2] was 50 to 100% throughout. Also, the GPA result in assay [3] is “B (More than 0-Less than 80)”.
